Columns and labels:
Assay in all cases: MIC, CLSI broth microdilution
Assay type in all cases: cell-based
[1] = tested on: A. baumannii AABA1009 (Fluoroquinolone-resistant); conditions: Table 2
Method in brief: (§1)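 CLSI M7-A7 broth microdilution; 2-fold serial dilutions in Mueller Hinton Broth, 1:1 with inoculum; final 5×10^5 CFU/mL; 35° C., 20 h, ambient air. QC strains E. coli ATCC 25922, P. aeruginosa ATCC 27853, S. aureus ATCC 29213.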

[2] = tested on: A. baumannii AABA1020 (Fluoroquinolone-resistant); conditions: Table 3
Method in brief: as §1

[3] = tested on: A. baumannii AABA1065 (Fluoroquinolone-susceptible)
Method in brief: as §1

[4] = tested on: E. coli AECO001 (Fluoroquinolone susceptible, ATCC25922)
Method in brief: as §1

[5] = tested on: E. coli AECO002 (Fluoroquinolone susceptible); conditions: Table 3
Method in brief: as §1

[6] = tested on: E. coli AECO066 (Fluoroquinolone-resistant)
Method in brief: as §1

[7] = tested on: E. coli AECO086 (Fluoroquinolone-resistant); conditions: Table 3
Method in brief: as §1

[8] = tested on: P. aeruginosa APAE001 (Fluoroquinolone-susceptible, ATCC27853)
Method in brief: as §1

[9] = tested on: P. aeruginosa APAE002 (Fluoroquinolone susceptible); conditions: Table 3
Method in brief: as §1

[10] = tested on: P. aeruginosa APAE054 (Fluoroquinolone-resistant)
Method in brief: as §1

[11] = tested on: S. aureus ASAU001 (Fluoroquinolone-susceptible, ATCC29213)
Method in brief: as §1

[12] = tested on: S. aureus ASAU002 (Fluoroquinolone-susceptible, ATCC33591 (MRSA)); conditions: Table 3
Method in brief: as §1

[13] = tested on: S. aureus ASAU1031 (Fluoroquinolone-resistant)
Method in brief: as §1

[14] = tested on: S. aureus ASAU1033 (Fluoroquinolone-resistant); conditions: Table 3
Method in brief: as §1

[15] = tested on: S. pneumoniae ASPN001 (Fluoroquinolone-susceptible, ATCC49619)
Method in brief: as §1

[16] = tested on: S. pneumoniae ASPN002 (Fluoroquinolone-susceptible, ATCC10813); conditions: Table 3
Method in brief: as §1

[17] = tested on: S. pneumoniae ASPN1018 (Fluoroquinolone-resistant); conditions: Table 3
Method in brief: as §1

[18] = tested on: S. pneumoniae ASPN1027 (Fluoroquinolone-resistant)
Method in brief: as §1

Row | SMILES | MIC AABA 1009 [1] | MIC AABA1020 [2] | MIC AABA 1065 ([3]; Table 2) | MIC AABA 1065 ([3]; Table 3) | MIC AECO 001 ([4]; Table 2, 35° C., 20 hours) | MIC AECO 001 ([4]; Table 3) | MIC AECO002 [5] | MIC AECO 066 ([6]; Table 2) | MIC AECO 066 ([6]; Table 3) | MIC AECO086 [7] | MIC APAE 001 ([8]; Table 2) | MIC APAE 001 ([8]; Table 3) | MIC APAE002 [9] | MIC APAE 054 ([10]; Table 2) | MIC APAE 054 ([10]; Table 3) | MIC ASAU 001 ([11]; Table 2) | MIC ASAU 001 ([11]; Table 3) | MIC ASAU002 [12] | MIC ASAU 1031 ([13]; Table 2) | MIC ASAU 1031 ([13]; Table 3) | further results
1 | NC1CC2CCCc3c(c(F)cc4c(=O)c(C(=O)O)cn(C5CC5)c34)N2C1.O=C(O)C(F)(F)F [7C/29, (7aS,9S)-9-Amino-4-cyclopropyl-12-fluoro-1-oxo-4,5,6,7,7a,8,9,10-octahydro-1H-pyrrolo quinoline-2-carboxylic acid trifluoroacetate] | C (MIC's of greater than 8.0 μg/mL = C) | D (MIC's of greater than 8.0 μg/mL = D) | B (MIC's of greater than 1.0 μg/mL to 8.0 μg/mL = B) | C (MIC's of 2.0 μg/mL to 8.0 μg/mL = C) | B (MIC's of greater than 1.0 μg/mL to 8.0 μg/mL = B) | C (MIC's of 2.0 μg/mL to 8.0 μg/mL = C) | C (MIC's of 2.0 μg/mL to 8.0 μg/mL = C) | C (MIC's of greater than 8.0 μg/mL = C) | D (MIC's of greater than 8.0 μg/mL = D) | D (MIC's of greater than 8.0 μg/mL = D) | C (MIC's of greater than 8.0 μg/mL = C) | D (MIC's of greater than 8.0 μg/mL = D) | D (MIC's of greater than 8.0 μg/mL = D) | C (MIC's of greater than 8.0 μg/mL = C) | D (MIC's of greater than 8.0 μg/mL = D) | B (MIC's of greater than 1.0 μg/mL to 8.0 μg/mL = B) | C (MIC's of 2.0 μg/mL to 8.0 μg/mL = C) | C (MIC's of 2.0 μg/mL to 8.0 μg/mL = C) | C (MIC's of greater than 8.0 μg/mL = C) | D (MIC's of greater than 8.0 μg/mL = D) | MIC ASAU1033 [14]: D (MIC's of greater than 8.0 μg/mL = D); MIC ASPN 001 ([15]; Table 2): C (MIC's of greater than 8.0 μg/mL = C); MIC ASPN 001 ([15]; Table 3): D (MIC's of greater than 8.0 μg/mL = D); MIC ASPN002 [16]: D (MIC's of greater than 8.0 μg/mL = D); MIC ASPN1018 [17]: D (MIC's of greater than 8.0 μg/mL = D); MIC ASPN 1027 ([18]; Table 2): C (MIC's of greater than 8.0 μg/mL = C); MIC ASPN 1027 ([18]; Table 3): D (MIC's of greater than 8.0 μg/mL = D)
2 | NC1CC2CC=Cc3c(c(F)cc4c(=O)c(C(=O)O)cn(C5CC5)c34)N2C1.O=C(O)C(F)(F)F [7C/30, (7aS,9S)-9-Amino-4-cyclopropyl-12-fluoro-1-oxo-4,7,7a,8,9,10-hexahydro-1H-pyrrolo[1′,2′:1,7]azepino-[2,3-h]quinoline-2-carboxylic acid trifluoroacetate] | C (MIC's of greater than 8.0 μg/mL = C) | D (MIC's of greater than 8.0 μg/mL = D) | B (MIC's of greater than 1.0 μg/mL to 8.0 μg/mL = B) | C (MIC's of 2.0 μg/mL to 8.0 μg/mL = C) | B (MIC's of greater than 1.0 μg/mL to 8.0 μg/mL = B) | B (MIC's of 1.0 μg/mL to 2.0 μg/mL = B) | B (MIC's of 1.0 μg/mL to 2.0 μg/mL = B) | C (MIC's of greater than 8.0 μg/mL = C) | D (MIC's of greater than 8.0 μg/mL = D) | D (MIC's of greater than 8.0 μg/mL = D) | C (MIC's of greater than 8.0 μg/mL = C) | D (MIC's of greater than 8.0 μg/mL = D) | D (MIC's of greater than 8.0 μg/mL = D) | C (MIC's of greater than 8.0 μg/mL = C) | D (MIC's of greater than 8.0 μg/mL = D) | B (MIC's of greater than 1.0 μg/mL to 8.0 μg/mL = B) | B (MIC's of 1.0 μg/mL to 2.0 μg/mL = B) | B (MIC's of 1.0 μg/mL to 2.0 μg/mL = B) | C (MIC's of greater than 8.0 μg/mL = C) | D (MIC's of greater than 8.0 μg/mL = D) | MIC ASAU1033 [14]: D (MIC's of greater than 8.0 μg/mL = D); MIC ASPN 001 ([15]; Table 2): B (MIC's of greater than 1.0 μg/mL to 8.0 μg/mL = B); MIC ASPN 001 ([15]; Table 3): C (MIC's of 2.0 μg/mL to 8.0 μg/mL = C); MIC ASPN002 [16]: C (MIC's of 2.0 μg/mL to 8.0 μg/mL = C); MIC ASPN1018 [17]: C (MIC's of 2.0 μg/mL to 8.0 μg/mL = C); MIC ASPN 1027 ([18]; Table 2): B (MIC's of greater than 1.0 μg/mL to 8.0 μg/mL = B); MIC ASPN 1027 ([18]; Table 3): C (MIC's of 2.0 μg/mL to 8.0 μg/mL = C)
3 | N[C@@H]1C[C@H]2CCCc3c(c(F)cc4c(=O)c(C(=O)O)cn(C5CC5)c34)N2C1.O=C(O)C(F)(F)F [7D/39, (7aR,9R)-9-Amino-4-cyclopropyl-12-fluoro-1-oxo-4,5,6,7,7a,8,9,10-octahydro-1H-pyrrolo[1′,2′:1,7]-azepino[2,3-h]quinoline-2-carboxylic acid trifluoroacetate] | C (MIC's of greater than 8.0 μg/mL = C) | D (MIC's of greater than 8.0 μg/mL = D) | A (MIC's of 1.0 μg/mL or less = A) | A (MIC's of less than 1.0 = A) | A (MIC's of 1.0 μg/mL or less = A) | A (MIC's of less than 1.0 = A) | A (MIC's of less than 1.0 = A) | C (MIC's of greater than 8.0 μg/mL = C) | D (MIC's of greater than 8.0 μg/mL = D) | D (MIC's of greater than 8.0 μg/mL = D) | B (MIC's of greater than 1.0 μg/mL to 8.0 μg/mL = B) | C (MIC's of 2.0 μg/mL to 8.0 μg/mL = C) | B (MIC's of 1.0 μg/mL to 2.0 μg/mL = B) | C (MIC's of greater than 8.0 μg/mL = C) | D (MIC's of greater than 8.0 μg/mL = D) | A (MIC's of 1.0 μg/mL or less = A) | A (MIC's of less than 1.0 = A) | A (MIC's of less than 1.0 = A) | C (MIC's of greater than 8.0 μg/mL = C) | D (MIC's of greater than 8.0 μg/mL = D) | MIC ASAU1033 [14]: D (MIC's of greater than 8.0 μg/mL = D); MIC ASPN 001 ([15]; Table 2): B (MIC's of greater than 1.0 μg/mL to 8.0 μg/mL = B); MIC ASPN 001 ([15]; Table 3): B (MIC's of 1.0 μg/mL to 2.0 μg/mL = B); MIC ASPN002 [16]: B (MIC's of 1.0 μg/mL to 2.0 μg/mL = B); MIC ASPN1018 [17]: D (MIC's of greater than 8.0 μg/mL = D); MIC ASPN 1027 ([18]; Table 2): C (MIC's of greater than 8.0 μg/mL = C); MIC ASPN 1027 ([18]; Table 3): D (MIC's of greater than 8.0 μg/mL = D)
4 | N[C@@H]1C[C@H]2CC=Cc3c(c(F)cc4c(=O)c(C(=O)O)cn(C5CC5)c34)N2C1.O=C(O)C(F)(F)F [7D/40, (7aR,9R)-9-Amino-4-cyclopropyl-12-fluoro-1-oxo-4,7,7a,8,9,10-hexahydro-1H-pyrrolo[1′,2′:1,7]-azepino[2,3-h]quinoline-2-carboxylic acid trifluoroacetate] | C (MIC's of greater than 8.0 μg/mL = C) | D (MIC's of greater than 8.0 μg/mL = D) | A (MIC's of 1.0 μg/mL or less = A) | A (MIC's of less than 1.0 = A) | A (MIC's of 1.0 μg/mL or less = A) | A (MIC's of less than 1.0 = A) | A (MIC's of less than 1.0 = A) | C (MIC's of greater than 8.0 μg/mL = C) | D (MIC's of greater than 8.0 μg/mL = D) | D (MIC's of greater than 8.0 μg/mL = D) | B (MIC's of greater than 1.0 μg/mL to 8.0 μg/mL = B) | B (MIC's of 1.0 μg/mL to 2.0 μg/mL = B) | B (MIC's of 1.0 μg/mL to 2.0 μg/mL = B) | C (MIC's of greater than 8.0 μg/mL = C) | D (MIC's of greater than 8.0 μg/mL = D) | A (MIC's of 1.0 μg/mL or less = A) | A (MIC's of less than 1.0 = A) | A (MIC's of less than 1.0 = A) | C (MIC's of greater than 8.0 μg/mL = C) | D (MIC's of greater than 8.0 μg/mL = D) | MIC ASAU1033 [14]: D (MIC's of greater than 8.0 μg/mL = D); MIC ASPN 001 ([15]; Table 2): B (MIC's of greater than 1.0 μg/mL to 8.0 μg/mL = B); MIC ASPN 001 ([15]; Table 3): B (MIC's of 1.0 μg/mL to 2.0 μg/mL = B); MIC ASPN002 [16]: B (MIC's of 1.0 μg/mL to 2.0 μg/mL = B); MIC ASPN1018 [17]: D (MIC's of greater than 8.0 μg/mL = D); MIC ASPN 1027 ([18]; Table 2): C (MIC's of greater than 8.0 μg/mL = C); MIC ASPN 1027 ([18]; Table 3): D (MIC's of greater than 8.0 μg/mL = D)
